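Following 48 hours of exposure in 96-well plates, responses at five concentrations were used to interpolate endpoints linearly. The concentration for 50% growth inhibition is given as GI50.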 Activity calls are given as the source filed them. Cut-off read from the data, not from the text of the source: active = GI50 up to about 1.1 µM and inactive = higher.
What was measured:
Experiment in all cases: NCI tumour cell line growth inhibition, 48 h
SW-620 = test system: SW-620
CAKI-1 = test system: CAKI-1
SNB-19 = test system: SNB-19
RPMI-8226 = test system: RPMI-8226
MDA-N = test system: MDA-N
CCRF-CEM = test system: CCRF-CEM
T47D = test system: T47D
COLO 205 = test system: COLO 205
SF-268 = test system: SF-268
OVCAR-4 = test system: OVCAR-4
SK-MEL-5 = test system: SK-MEL-5
IGROV-1 = test system: IGROV-1
ACHN = test system: ACHN
UACC-62 = test system: UACC-62
SK-MEL-28 = test system: SK-MEL-28
HOP-62 = test system: HOP-62
UACC-257 = test system: UACC-257
SNB-75 = test system: SNB-75
OVCAR-8 = test system: OVCAR-8
MCF7 = test system: MCF7
TK-10 = test system: TK-10
PC-3 = test system: PC-3
M14 = test system: M14
HCC 2998 = test system: HCC 2998
SF-295 = test system: SF-295
K562 = test system: K562
HCT-15 = test system: HCT-15
SK-OV-3 = test system: SK-OV-3
NCI-H460 = test system: NCI-H460
SR = test system: SR
DU-145 = test system: DU-145
NCI/ADR-RES = test system: NCI/ADR-RES
MOLT-4 = test system: MOLT-4
HOP-92 = test system: HOP-92
LOX IMVI = test system: LOX IMVI
EKVX = test system: EKVX
UO-31 = test system: UO-31
KM12 = test system: KM12
HT-29 = test system: HT-29
NCI-H226 = test system: NCI-H226
Hs-578T = test system: Hs-578T
A498 = test system: A498
MDA-MB-231 = test system: MDA-MB-231
U-251 = test system: U-251
NCI-H23 = test system: NCI-H23
SK-MEL-2 = test system: SK-MEL-2
OVCAR-3 = test system: OVCAR-3
MDA-MB-435 = test system: MDA-MB-435
SF-539 = test system: SF-539
OVCAR-5 = test system: OVCAR-5
786-0 = test system: 786-0
NCI-H522 = test system: NCI-H522
HCT-116 = test system: HCT-116
Malme-3M = test system: Malme-3M
RXF 393 = test system: RXF 393
SN12C = test system: SN12C
A549 = test system: A549
HL-60 = test system: HL-60

SMILES: CC(=O)O[C@H]1CN(S(=O)(=O)c2ccc(C)cc2)C[C@@H]1C1CCCCC1
- GI50 (SW-620): 26.1 µM (inactive)
- GI50 (CAKI-1): 45.8 µM (inactive)
- GI50 (SNB-19): 55.3 µM (inactive)
- GI50 (RPMI-8226): 33.1 µM (inactive)
- GI50 (MDA-N): 25.5 µM (inactive)
- GI50 (CCRF-CEM): 37.5 µM (inactive)
- GI50 (T47D): 40.6 µM (inactive)
- GI50 (COLO 205): 46.8 µM (inactive)
- GI50 (SF-268): 26.7 µM (inactive)
- GI50 (OVCAR-4): 31.9 µM (inactive)
- GI50 (SK-MEL-5): 10.6 µM (inactive)
- GI50 (IGROV-1): 18.8 µM (inactive)
- GI50 (ACHN): 36.9 µM (inactive)
- GI50 (UACC-62): 22.6 µM (inactive)
- GI50 (SK-MEL-28): 20.5 µM (inactive)
- GI50 (HOP-62): 35.8 µM (inactive)
- GI50 (UACC-257): 18 µM (inactive)
- GI50 (SNB-75): 24.9 µM (inactive)
- GI50 (OVCAR-8): 22.7 µM (inactive)
- GI50 (MCF7): 20.8 µM (inactive)
- GI50 (TK-10): 21.9 µM (inactive)
- GI50 (PC-3): 20.1 µM (inactive)
- GI50 (M14): 17.7 µM (inactive)
- GI50 (HCC 2998): 45.6 µM (inactive)
- GI50 (SF-295): 14.4 µM (inactive)
- GI50 (K562): 32.9 µM (inactive)
- GI50 (HCT-15): 28.4 µM
- GI50 (SK-OV-3): 43.7 µM (inactive)
- GI50 (NCI-H460): 31.7 µM (inactive)
- GI50 (SR): 18.6 µM (inactive)
- GI50 (DU-145): 32.9 µM (inactive)
- GI50 (NCI/ADR-RES): 19.5 µM (inactive)
- GI50 (MOLT-4): 28.5 µM (inactive)
- GI50 (HOP-92): 23.2 µM (inactive)
- GI50 (LOX IMVI): 21.6 µM (inactive)
- GI50 (EKVX): 17 µM (inactive)
- GI50 (UO-31): 38.2 µM (inactive)
- GI50 (KM12): 17.9 µM (inactive)
- GI50 (HT-29): 24.4 µM (inactive)
- GI50 (NCI-H226): 16.7 µM (inactive)
- GI50 (Hs-578T): 18.9 µM (inactive)
- GI50 (A498): > 100 µM (inactive)
- GI50 (MDA-MB-231): 51.4 µM (inactive)
- GI50 (U-251): 29.7 µM (inactive)
- GI50 (NCI-H23): 36.3 µM (inactive)
- GI50 (SK-MEL-2): 18.7 µM (inactive)
- GI50 (OVCAR-3): 18 µM (inactive)
- GI50 (MDA-MB-435): 27.9 µM (inactive)
- GI50 (SF-539): < 0.01 µM (active)
- GI50 (OVCAR-5): 39 µM (inactive)

SMILES: Cc1cc(O)c(C(O)c2ccccn2)cc1O (configuration not stated)
- GI50 (786-0): 19.1 µM (inactive)
- GI50 (SW-620): 21.1 µM (inactive)
- GI50 (CAKI-1): 11.7 µM (inactive)
- GI50 (SNB-19): 55.3 µM (inactive)
- GI50 (RPMI-8226): 20.4 µM (inactive)
- GI50 (NCI-H522): 3.78 µM (inactive)
- GI50 (MDA-N): 18.7 µM (inactive)
- GI50 (CCRF-CEM): 3.21 µM (inactive)
- GI50 (T47D): > 10 µM (inactive)
- GI50 (COLO 205): 10 µM (inactive)
- GI50 (SF-268): 75.7 µM (inactive)
- GI50 (HCT-116): 16.7 µM (inactive)
- GI50 (SK-MEL-5): 23.2 µM (inactive)
- GI50 (IGROV-1): 35.8 µM (inactive)
- GI50 (Malme-3M): 20.7 µM (inactive)
- GI50 (ACHN): 6.01 µM (inactive)
- GI50 (RXF 393): 16.3 µM (inactive)
- GI50 (UACC-62): 14.5 µM (inactive)
- GI50 (SK-MEL-28): 18.7 µM (inactive)
- GI50 (HOP-62): 89.1 µM (inactive)
- GI50 (UACC-257): > 10 µM (inactive)
- GI50 (SNB-75): 14.7 µM (inactive)
- GI50 (OVCAR-8): 18.8 µM (inactive)
- GI50 (MCF7): 18.1 µM (inactive)
- GI50 (TK-10): 16.6 µM (inactive)
- GI50 (PC-3): 14.1 µM (inactive)
- GI50 (M14): 20.2 µM (inactive)
- GI50 (HCC 2998): 21.3 µM (inactive)
- GI50 (SF-295): > 100 µM (inactive)
- GI50 (K562): 3.77 µM (inactive)
- GI50 (HCT-15): 18.2 µM
- GI50 (NCI-H460): 49.2 µM (inactive)
- GI50 (SR): 3.01 µM (inactive)
- GI50 (DU-145): 37.9 µM (inactive)
- GI50 (NCI/ADR-RES): 27.5 µM (inactive)
- GI50 (MOLT-4): 13.6 µM (inactive)
- GI50 (SN12C): 18.7 µM (inactive)
- GI50 (LOX IMVI): 16.5 µM (inactive)
- GI50 (EKVX): 18.2 µM (inactive)
- GI50 (UO-31): 19.1 µM (inactive)
- GI50 (KM12): 24.5 µM (inactive)
- GI50 (HT-29): 21.4 µM (inactive)
- GI50 (A549): 81.1 µM (inactive)
- GI50 (NCI-H226): > 10 µM (inactive)
- GI50 (Hs-578T): 45.8 µM (inactive)
- GI50 (MDA-MB-231): 17.5 µM (inactive)
- GI50 (U-251): 36.7 µM (inactive)
- GI50 (NCI-H23): 18 µM (inactive)
- GI50 (OVCAR-3): 15 µM (inactive)
- GI50 (MDA-MB-435): 18.7 µM (inactive)
- GI50 (SF-539): 38.8 µM (inactive)
- GI50 (OVCAR-5): 17.2 µM (inactive)
- GI50 (HL-60): 11.1 µM (inactive)

SMILES: O=c1c(Nc2ccccc2)cn(CCOc2ccc(Cl)cc2)c(=O)n1CCOc1ccc(Cl)cc1
- GI50 (786-0): 28.1 µM (inactive)
- GI50 (SW-620): > 100 µM (inactive)
- GI50 (CAKI-1): > 100 µM (inactive)
- GI50 (SNB-19): > 100 µM (inactive)
- GI50 (RPMI-8226): > 100 µM (inactive)
- GI50 (MDA-N): > 100 µM (inactive)
- GI50 (CCRF-CEM): 64 µM (inactive)
- GI50 (COLO 205): > 100 µM (inactive)
- GI50 (SF-268): 89.9 µM (inactive)
- GI50 (OVCAR-4): 26.7 µM (inactive)
- GI50 (HCT-116): > 100 µM (inactive)
- GI50 (SK-MEL-5): 75.2 µM (inactive)
- GI50 (IGROV-1): > 100 µM (inactive)
- GI50 (ACHN): > 100 µM (inactive)
- GI50 (RXF 393): 36.4 µM (inactive)
- GI50 (UACC-62): > 100 µM (inactive)
- GI50 (SK-MEL-28): > 100 µM (inactive)
- GI50 (UACC-257): > 100 µM (inactive)
- GI50 (PC-3): 41.1 µM (inactive)
- GI50 (M14): 60.3 µM (inactive)
- GI50 (HCC 2998): 22.2 µM (inactive)
- GI50 (SF-295): > 100 µM (inactive)
- GI50 (K562): > 100 µM (inactive)
- GI50 (HCT-15): > 100 µM
- GI50 (NCI-H460): > 100 µM (inactive)
- GI50 (SR): 96.2 µM (inactive)
- GI50 (DU-145): 75.2 µM (inactive)
- GI50 (MOLT-4): > 100 µM (inactive)
- GI50 (SN12C): > 100 µM (inactive)
- GI50 (LOX IMVI): > 100 µM (inactive)
- GI50 (EKVX): 55.7 µM (inactive)
- GI50 (UO-31): 51.9 µM (inactive)
- GI50 (KM12): > 100 µM (inactive)
- GI50 (A549): > 100 µM (inactive)
- GI50 (Hs-578T): 60 µM (inactive)
- GI50 (A498): > 100 µM (inactive)
- GI50 (U-251): > 100 µM (inactive)
- GI50 (NCI-H23): > 100 µM (inactive)
- GI50 (MDA-MB-435): 39.1 µM (inactive)

Reference: ChEMBL document CHEMBL1201862, “PubChem BioAssay data set” (2004)
